Laboratory results reported in the supplement of paper PMC10307832.

How the values were obtained:
Test in all cases: relative viability (nuclei count vs DMSO), 5 days (fraction); higher = more cells survive
[1] = compound: C/C(=N\NC(=S)N1CCC1)/C2=CC=CC=N2 + CC(C)C[C@H](NC(=O)[C@H](Cc1ccccc1)NC(=O)c1cnccn1)B(O)O [Bortezomib] (partner 0.002 µM)
Outline: (§1)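 Relative viability divides the nuclei count in treated wells by that in vehicle wells. Lung cancer cell lines were seeded in 1536-well plates, dosed by pin tool the next day, and fixed and stained after 5 days in one step with final 0.05% Triton X-100, 1% formaldehyde and 1 ug/ml Hoechst. Dosing was a single drug or a fixed anchor-drug dose plus five library-drug doses (not always all listed) in √10 steps, and values are medians of duplicate plates imaged at 4×.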

[2] = compound: C/C(=N\NC(=S)N1CCC1)/C2=CC=CC=N2 + CC(=O)Nc1cccc(-n2c(=O)n(C3CC3)c(=O)c3c(Nc4ccc(I)cc4F)n(C)c(=O)c(C)c32)c1 [Trametinib] (partner 0.02 µM)
Outline: as §1

[3] = compound: C/C(=N\NC(=S)N1CCC1)/C2=CC=CC=N2 + O=C(c1cc(Cc2n[nH]c(=O)c3ccccc23)ccc1F)N1CCN(C(=O)C2CC2)CC1 [Olaparib] (partner 8 µM)
Outline: as §1

[4] = compound: C/C(=N\NC(=S)N1CCC1)/C2=CC=CC=N2 + CS(=O)(=O)N1CCN(Cc2cc3nc(-c4cccc5[nH]ncc45)nc(N4CCOCC4)c3s2)CC1 [Pictilisib] (partner 1 µM)
Outline: as §1

Row | Cell Line | relative viability ([1]; first compound 0.05 µM) | relative viability ([1]; first compound 0.1581 µM) | relative viability ([1]; first compound 0.5 µM) | relative viability ([1]; first compound 1.581 µM) | relative viability ([1]; first compound 5 µM) | relative viability ([2]; first compound 0.05 µM) | relative viability ([2]; first compound 0.1581 µM) | relative viability ([2]; first compound 0.5 µM) | relative viability ([2]; first compound 1.581 µM) | relative viability ([2]; first compound 5 µM) | relative viability ([3]; first compound 0.05 µM) | relative viability ([3]; first compound 0.1581 µM) | relative viability ([3]; first compound 0.5 µM) | relative viability ([3]; first compound 1.581 µM) | relative viability ([3]; first compound 5 µM) | relative viability ([4]; first compound 0.05 µM) | relative viability ([4]; first compound 0.1581 µM) | relative viability ([4]; first compound 0.5 µM) | relative viability ([4]; first compound 1.581 µM) | relative viability ([4]; first compound 5 µM)
1 | NCI-H838 | 0.165 | 0.181 | 0.172 | 0.134 | 0.145 | 0.156 | 0.167 | 0.157 | 0.11 | 0.136 | 0.184 | 0.173 | 0.186 | 0.159 | 0.13 | 0.172 | 0.207 | 0.167 | 0.102 | 0.157
2 | NCI-H1355 | 0.2 | 0.205 | 0.21 | 0.212 | 0.195 | 0.22 | 0.191 | 0.136 | 0.176 | 0.17 | 0.22 | 0.179 | 0.171 | 0.175 | 0.142 | 0.198 | 0.165 | 0.178 | 0.172 | 0.148
3 | NCI-H1437 | 0.121 | 0.137 | 0.0867 | 0.0717 | 0.0851 | 0.23 | 0.241 | 0.194 | 0.16 | 0.208 | 0.226 | 0.213 | 0.235 | 0.143 | 0.119 | 0.0885 | 0.101 | 0.0858 | 0.0683 | 0.0721
4 | NCI-H1650 | 0.177 | 0.2 | 0.182 | 0.188 | 0.168 | 0.131 | 0.176 | 0.143 | 0.177 | 0.146 | 0.13 | 0.158 | 0.125 | 0.166 | 0.152 | 0.17 | 0.214 | 0.186 | 0.165 | 0.193
5 | NCI-H1651 | 0.167 | 0.149 | 0.151 | 0.15 | 0.137 | 0.209 | 0.156 | 0.137 | 0.102 | 0.0667 | 0.125 | 0.117 | 0.121 | 0.122 | 0.0747 | 0.0849 | 0.0897 | 0.0884 | 0.0807 | 0.0572
6 | NCI-H1666 | 0.218 | 0.271 | 0.232 | 0.198 | 0.221 | 0.545 | 0.558 | 0.495 | 0.467 | 0.5 | 0.601 | 0.547 | 0.479 | 0.461 | 0.523 | 0.158 | 0.22 | 0.234 | 0.176 | 0.2
7 | NCI-H1734 | 0.228 | 0.205 | 0.174 | 0.123 | 0.107 | 0.153 | 0.154 | 0.122 | 0.137 | 0.116 | 0.148 | 0.13 | 0.15 | 0.114 | 0.1 | 0.15 | 0.151 | 0.149 | 0.115 | 0.139
